In publication PMC11062894, “Protein-based bandpass filters for controlling cellular signaling with chemical inputs” (Nature Chemical Biology, 2023):
Several values for one entry are separate records, joined by “and”; a condition that tells them apart may be missing. Identical values can stand only once.

System: GEMS receptors with CBPvene (Bcl2–LD3 and Bcl2high variants), STAT3-driven SEAP in HEK293T cells
Experiment: GEMS SEAP reporter assay, CBPvene (Bcl2high, LD3-v and Bcl2-v variants) with venetoclax
Type: cell-based
Conditions: for SEAP, replicate values: Supplementary Figure 8e
[1] = SuppFigure 8b, LD3, venetoclax 10 nM
[2] = SuppFigure 8b, LD3, venetoclax 31.6 nM
[3] = SuppFigure 8b, LD3, venetoclax 100 nM
[4] = SuppFigure 8b, LD3, venetoclax 316 nM
[5] = SuppFigure 8b, LD3, venetoclax 1000 nM
[6] = SuppFigure 8b, LD3, venetoclax 3160 nM
[7] = SuppFigure 8b, LD3, venetoclax 10000 nM
[8] = SuppFigure 8b, LD3v1, venetoclax 1 nM
[9] = SuppFigure 8b, LD3v1, venetoclax 3.16 nM
[10] = SuppFigure 8b, LD3v1, venetoclax 10 nM
[11] = SuppFigure 8b, LD3v1, venetoclax 31.6 nM
[12] = SuppFigure 8b, LD3v1, venetoclax 100 nM
[13] = SuppFigure 8b, LD3v1, venetoclax 316 nM
[14] = SuppFigure 8b, LD3v1, venetoclax 1000 nM
[15] = SuppFigure 8b, LD3v1, venetoclax 3160 nM
[16] = SuppFigure 8b, LD3v1, venetoclax 10000 nM
[17] = SuppFigure 8b, LD3v2, venetoclax 1 nM
[18] = SuppFigure 8b, LD3v2, venetoclax 3.16 nM
[19] = SuppFigure 8b, LD3v2, venetoclax 10 nM
[20] = SuppFigure 8b, LD3v2, venetoclax 31.6 nM
[21] = SuppFigure 8b, LD3v2, venetoclax 100 nM
[22] = SuppFigure 8b, LD3v2, venetoclax 316 nM
[23] = SuppFigure 8b, LD3v2, venetoclax 1000 nM
[24] = SuppFigure 8b, LD3v2, venetoclax 3160 nM
[25] = SuppFigure 8b, LD3v2, venetoclax 10000 nM
[26] = SuppFigure 8b, LD3v3, venetoclax 1 nM
[27] = SuppFigure 8b, LD3v3, venetoclax 3.16 nM
[28] = SuppFigure 8b, LD3v3, venetoclax 10 nM
[29] = SuppFigure 8b, LD3v3, venetoclax 31.6 nM
[30] = SuppFigure 8b, LD3v3, venetoclax 100 nM
[31] = SuppFigure 8b, LD3v3, venetoclax 316 nM
[32] = SuppFigure 8b, LD3v3, venetoclax 1000 nM
[33] = SuppFigure 8b, LD3v3, venetoclax 3160 nM
[34] = SuppFigure 8b, LD3v3, venetoclax 10000 nM
[35] = SuppFigure 8c, LD3, venetoclax 1 nM
[36] = SuppFigure 8c, LD3, venetoclax 3.16 nM
[37] = SuppFigure 8c, LD3, venetoclax 10 nM
[38] = SuppFigure 8c, LD3, venetoclax 31.6 nM
[39] = SuppFigure 8c, LD3, venetoclax 100 nM
[40] = SuppFigure 8c, LD3, venetoclax 316 nM
[41] = SuppFigure 8c, LD3, venetoclax 1000 nM
[42] = SuppFigure 8c, LD3, venetoclax 3160 nM
[43] = SuppFigure 8c, LD3, venetoclax 10000 nM
[44] = SuppFigure 8c, LD3v1, venetoclax 1 nM
[45] = SuppFigure 8c, LD3v1, venetoclax 3.16 nM
[46] = SuppFigure 8c, LD3v1, venetoclax 10 nM
[47] = SuppFigure 8c, LD3v1, venetoclax 31.6 nM
[48] = SuppFigure 8c, LD3v1, venetoclax 100 nM
[49] = SuppFigure 8c, LD3v1, venetoclax 316 nM
[50] = SuppFigure 8c, LD3v1, venetoclax 1000 nM
[51] = SuppFigure 8c, LD3v1, venetoclax 3160 nM
[52] = SuppFigure 8c, LD3v1, venetoclax 10000 nM
[53] = SuppFigure 8c, LD3v2, venetoclax 1 nM
[54] = SuppFigure 8c, LD3v2, venetoclax 3.16 nM
[55] = SuppFigure 8c, LD3v2, venetoclax 10 nM
[56] = SuppFigure 8c, LD3v2, venetoclax 31.6 nM
[57] = SuppFigure 8c, LD3v2, venetoclax 100 nM
[58] = SuppFigure 8c, LD3v2, venetoclax 316 nM
[59] = SuppFigure 8c, LD3v2, venetoclax 1000 nM
[60] = SuppFigure 8c, LD3v2, venetoclax 3160 nM
[61] = SuppFigure 8c, LD3v2, venetoclax 10000 nM
[62] = SuppFigure 8c, LD3v3, venetoclax 1 nM
[63] = SuppFigure 8c, LD3v3, venetoclax 3.16 nM
[64] = SuppFigure 8c, LD3v3, venetoclax 10 nM
[65] = SuppFigure 8c, LD3v3, venetoclax 31.6 nM
[66] = SuppFigure 8c, LD3v3, venetoclax 100 nM
[67] = SuppFigure 8c, LD3v3, venetoclax 316 nM
[68] = SuppFigure 8c, LD3v3, venetoclax 1000 nM
[69] = SuppFigure 8c, LD3v3, venetoclax 3160 nM
[70] = SuppFigure 8c, LD3v3, venetoclax 10000 nM

Compound: CC1(C)CCC(CN2CCN(c3ccc(C(=O)NS(=O)(=O)c4ccc(NCC5CCOCC5)c([N+](=O)[O-])c4)c(Oc4cnc5[nH]ccc5c4)c3)CC2)=C(c2ccc(Cl)cc2)C1 [Venetoclax]
- Normalized data (SEAP) [1]: 4.498
- Raw data (SEAP) [1]: 18.9052
- Normalized data (SEAP) [2]: 14.8552
- Raw data (SEAP) [2]: 62.4429
- Normalized data (SEAP) [3]: 43.1759
- Raw data (SEAP) [3]: 181.487
- Normalized data (SEAP) [4]: 91.7223
- Raw data (SEAP) [4]: 385.549
- Normalized data (SEAP) [5]: 100
- Raw data (SEAP) [5]: 420.344
- Normalized data (SEAP) [6]: 92.3499
- Raw data (SEAP) [6]: 388.188
- Normalized data (SEAP) [7]: 51.2329
- Raw data (SEAP) [7]: 215.355
- Normalized data (SEAP) [8]: 9.345
- Raw data (SEAP) [8]: 17.9682
- Normalized data (SEAP) [9]: 9.034
- Raw data (SEAP) [9]: 17.3705
- Normalized data (SEAP) [10]: 10.4886
- Raw data (SEAP) [10]: 20.1681
- Normalized data (SEAP) [11]: 19.5956
- Raw data (SEAP) [11]: 37.6794
- Normalized data (SEAP) [12]: 44.2027
- Raw data (SEAP) [12]: 84.9952
- Normalized data (SEAP) [13]: 100
- Raw data (SEAP) [13]: 192.285
- Normalized data (SEAP) [14]: 87.7314
- Raw data (SEAP) [14]: 168.695
- Normalized data (SEAP) [15]: 49.2054
- Raw data (SEAP) [15]: 94.6147
- Normalized data (SEAP) [16]: 19.8616
- Raw data (SEAP) [16]: 38.191
- Normalized data (SEAP) [17]: 3.604
- Raw data (SEAP) [17]: 12.0656
- Normalized data (SEAP) [18]: 3.9805
- Raw data (SEAP) [18]: 13.3245
- Normalized data (SEAP) [19]: 4.834
- Raw data (SEAP) [19]: 16.18
- Normalized data (SEAP) [20]: 12.8068
- Raw data (SEAP) [20]: 42.87
- Normalized data (SEAP) [21]: 33.7173
- Raw data (SEAP) [21]: 112.867
- Normalized data (SEAP) [22]: 77.9659
- Raw data (SEAP) [22]: 260.986
- Normalized data (SEAP) [23]: 100
- Raw data (SEAP) [23]: 334.744
- Normalized data (SEAP) [24]: 66.077
- Raw data (SEAP) [24]: 221.189
- Normalized data (SEAP) [25]: 30.9558
- Raw data (SEAP) [25]: 103.623
- Normalized data (SEAP) [26]: 59.1038
- Raw data (SEAP) [26]: 11.2669
- Normalized data (SEAP) [27]: 71.809
- Raw data (SEAP) [27]: 13.6889
- Normalized data (SEAP) [28]: 61.7452
- Raw data (SEAP) [28]: 11.7704
- Normalized data (SEAP) [29]: 69.7498
- Raw data (SEAP) [29]: 13.2963
- Normalized data (SEAP) [30]: 80.5519
- Raw data (SEAP) [30]: 15.3555
- Normalized data (SEAP) [31]: 100
- Raw data (SEAP) [31]: 19.0629
- Normalized data (SEAP) [32]: 89.5017
- Raw data (SEAP) [32]: 17.0616
- Normalized data (SEAP) [33]: 75.6488
- Raw data (SEAP) [33]: 14.4208
- Normalized data (SEAP) [34]: 59.7156
- Raw data (SEAP) [34]: 11.3835
- Normalized data (SEAP) [35]: 3.575
- Raw data (SEAP) [35]: 13.7218
- Normalized data (SEAP) [36]: 3.97
- Raw data (SEAP) [36]: 15.2365
- Normalized data (SEAP) [37]: 6.118
- Raw data (SEAP) [37]: 23.4789
- Normalized data (SEAP) [38]: 19.9083
- Raw data (SEAP) [38]: 76.4036
- Normalized data (SEAP) [39]: 50.1718
- Raw data (SEAP) [39]: 192.548
- Normalized data (SEAP) [40]: 93.753
- Raw data (SEAP) [40]: 359.804
- Normalized data (SEAP) [41]: 100
- Raw data (SEAP) [41]: 383.778
- Normalized data (SEAP) [42]: 77.866
- Raw data (SEAP) [42]: 298.833
- Normalized data (SEAP) [43]: 35.1914
- Raw data (SEAP) [43]: 135.057
- Normalized data (SEAP) [44]: 13.8401
- Raw data (SEAP) [44]: 15.4633
- Normalized data (SEAP) [45]: 14.8573
- Raw data (SEAP) [45]: 16.5999
- Normalized data (SEAP) [46]: 15.6025
- Raw data (SEAP) [46]: 17.4324
- Normalized data (SEAP) [47]: 28.6773
- Raw data (SEAP) [47]: 32.0407
- Normalized data (SEAP) [48]: 48.5828
- Raw data (SEAP) [48]: 54.2809
- Normalized data (SEAP) [49]: 100
- Raw data (SEAP) [49]: 111.729
- Normalized data (SEAP) [50]: 98.9424
- Raw data (SEAP) [50]: 110.547
- Normalized data (SEAP) [51]: 75.2543
- Raw data (SEAP) [51]: 84.0806
- Normalized data (SEAP) [52]: 21.4009
- Raw data (SEAP) [52]: 23.9109
- Normalized data (SEAP) [53]: 4.916
- Raw data (SEAP) [53]: 14.375
- Normalized data (SEAP) [54]: 5.386
- Raw data (SEAP) [54]: 15.7505
- Normalized data (SEAP) [55]: 6.285
- Raw data (SEAP) [55]: 18.3792
- Normalized data (SEAP) [56]: 18.3149
- Raw data (SEAP) [56]: 53.5545
- Normalized data (SEAP) [57]: 44.7805
- Raw data (SEAP) [57]: 130.943
- Normalized data (SEAP) [58]: 92.9232
- Raw data (SEAP) [58]: 271.716
- Normalized data (SEAP) [59]: 100
- Raw data (SEAP) [59]: 292.41
- Normalized data (SEAP) [60]: 75.7485
- Raw data (SEAP) [60]: 221.496
- Normalized data (SEAP) [61]: 31.6477
- Raw data (SEAP) [61]: 92.541
- Normalized data (SEAP) [62]: 39.2835
- Raw data (SEAP) [62]: 15.066
- Normalized data (SEAP) [63]: 40.4811
- Raw data (SEAP) [63]: 15.5253
- Normalized data (SEAP) [64]: 41.5277
- Raw data (SEAP) [64]: 15.9266
- Normalized data (SEAP) [65]: 52.0376
- Raw data (SEAP) [65]: 19.9574
- Normalized data (SEAP) [66]: 75.9664
- Raw data (SEAP) [66]: 29.1345
- Normalized data (SEAP) [67]: 100
- Raw data (SEAP) [67]: 38.3518
- Normalized data (SEAP) [68]: 67.7678
- Raw data (SEAP) [68]: 25.9902
- Normalized data (SEAP) [69]: 51.723
- Raw data (SEAP) [69]: 19.8367
- Normalized data (SEAP) [70]: 31.0619
- Raw data (SEAP) [70]: 11.9128
- SEAP, replicate values (CBPVene-v5-LD3v1, venetoclax 100 nM): 98.3781 and 87.1331 and 45.1145
- SEAP, replicate values (CBPVene-v5-LD3v1, venetoclax 3160 nM): 13.0779
- SEAP, replicate values (CBPVene-v5, venetoclax 100 nM): 341.722 and 335.341
- Raw data Figure 5c, CBPVene-v4-LD3v1 (SEAP reporter raw value, single replicate) (Venetoclax 10000 nM, construct CBPVene-v4-LD3v1, three replicate columns): 307.085 and 269.935 and 317.486
- Raw data Figure 5c, CBPVene-v4 (SEAP reporter raw value, single replicate) (Venetoclax 10000 nM, construct CBPVene-v4, three replicate columns): 10.3692 and 8.227 and 12.3711
